# Results from patent publication US20240050403A1, “THERAPY OF POST-OPERATIVE EMESIS WITH AMISULPRIDE” (Acacia Pharma Limited, priority 2016, published 2024).
# Where “and” joins values, the source holds several entries; their conditions need not be identical. Equal values may be shown once.
# Tests used:
# Type in all cases: in vivo, human
# [1] = test system: adult, surgical patients at high risk of PONV; test: Study 1: Phase III study of amisulpride as combination prophylaxis against PONV in high-risk patients
# Method: A randomised, double-blind, placebo-controlled Phase Ill study of amisulpride as combination prophylaxis against post-operative nausea and vomiting in high-risk patients was conducted. The primary aim of the study was to assess the efficacy of amisulpride at 5 mg in the prevention of post-operative nausea and vomiting (PONV) in adult, surgical patients at high risk of PONV. The amisulpride was administered in combination with a standard anti-emetic.
# The subjects of the study were 1204 randomised adult patients ([…]) at high risk of PONV who were undergoing elective ambulatory (day-case) or in-patient surgery under general inhalational anaesthesia for an expected duration of at least one hour from induction of anaesthesia to extubation. Of the 1204 randomised patients, 1147 were dosed and eligible.
# High risk of PONV was defined as having at least three of the following risk factors: • Past history of PONV and/or motion sickness • Habitual non-smoking status • Female • Expected use of post-operative opioid analgesia
# 5 mg amisulpride was administered as a single, slow, intravenous (IV) push over one minute at the time of induction of anaesthesia; given in combination with a standard anti-emetic. Examples of standard anti-emetics used were ondansetron, granisetron and dexamethasone.
# The two arms of the study were as follows: • Arm 1: amisulpride IV at 5 mg in combination with a standard anti-emetic which is not a dopamine D2-antagonist (e.g. ondansetron IV at 4 mg, granisetron IV at 1 mg, or dexamethasone IV at 4 mg); • Arm 2 (control): amisulpride IV placebo in combination with a standard anti-emetic, as defined above • The primary efficacy variable was the absence or presence of PONV during the 24-hour post-operative period, where PONV was defined as the occurrence of one or more emetic episodes (vomiting and/or retching) or the receipt of one or more doses of rescue anti-emetic medication. Absence of PONV by this definition was termed “Complete Response” (CR). A number of secondary variables were evaluated including the occurrence of emesis (vomiting and/or retching).
# A comparison of the incidence of CR in the 0-24-hour period after surgery between the amisulpride group and the placebo group using Pearson's x2 test with Yates's continuity correction at a one-sided significance level of 2.5%. The primary efficacy analysis population was the modified intent-to-treat (mITT) population.
# Secondary efficacy variables assessed by incidence (e.g., emesis) were compared between the groups using Pearson's x2 test.
# [2] = test system: adult surgical patients; test: Two Phase III clinical trials, multi-centre, double-blind, randomised, placebo-controlled, PONV incidence
# Method: In two multi-centre, double-blind, randomised, placebo-controlled Phase III clinical trials involving 626 evaluable, adult surgical patients (again conducted by the applicant), administration of amisulpride at 5 mg was associated with a PONV incidence of 48%, compared to 59% with placebo (p<0.01).
# [3] = test system: adult surgical patients; test: Phase II clinical trial, multi-centre, double-blind, randomised, placebo-controlled, PONV incidence
# Method: In a multi-centre, double-blind, randomised, placebo-controlled Phase II clinical trial in adult surgical patients (conducted by the applicant), administration of amisulpride at 5 mg was associated with a PONV incidence of 40%, compared to 69% with placebo (p<0.01).
structure (smiles),measurement,setting,value
"CCN1CCCC1CNC(=O)c1cc(S(=O)(=O)CC)c(N)cc1OC (racemic) [Amisulpride, amisulpride]",Calculated RRR (relative risk reduction) of post-operative emesis,[1]; 5 mg IV plus a standard anti-emetic versus placebo plus standard anti-emetic,30.94%
same,Calculated RRR (relative risk reduction) of PONV,"[1]; 5 mg IV plus a standard anti-emetic versus placebo plus standard anti-emetic, 24 hour period",20.8% and 20.76%
same,Calculated RRR (relative risk reduction) of post-operative emesis,"[1]; 5 mg IV plus a standard anti-emetic versus placebo plus standard anti-emetic, listed as amisulpride",31%
same,Difference in PONV rate (improvement in CR rate) versus placebo plus standard anti-emetic,"[1]; 5 mg IV plus a standard anti-emetic, 24 hour period, mITT, p<0.001",11.08%
same,Number of patients with PONV,"[1]; 5 mg IV plus a standard anti-emetic, 24 hour period, of 572 patients",242
same,Number of patients with CR (complete response),"[1]; 5 mg IV plus a standard anti-emetic, 24 hour period, of 572 patients (mITT)",330
same,% patients with PONV,"[1]; 5 mg IV plus a standard anti-emetic, 24 hour period, placebo plus standard anti-emetic 53.39",42.31%
same,Number of patients with post-operative emesis (vomiting and/or retching),"[1]; 5 mg IV plus a standard anti-emetic, of 572 patients",79
same,Difference in post-operative emesis rate versus placebo plus standard anti-emetic,"[1]; 5 mg IV plus a standard anti-emetic, p=0.003",6.19%
same,% patients with post-operative emesis (vomiting and/or retching),"[1]; 5 mg IV plus a standard anti-emetic, placebo plus standard anti-emetic 20.00",13.81%
same,PONV incidence,"[2]; amisulpride at 5 mg, 626 evaluable patients, placebo 59% (p<0.01)",48%
same,safety profile versus placebo,[2]; amisulpride versus placebo,no significant difference between the safety profiles
same,transient increases in serum prolactin levels,[2]; amisulpride versus placebo,more common with amisulpride
same,PONV incidence,"[3]; amisulpride at 5 mg, placebo 69% (p<0.01)",40%
same,"adverse events, laboratory or ECG abnormalities versus placebo",[3]; amisulpride versus placebo,"no difference in the nature, incidence or severity of adverse events, or of laboratory or ECG abnormalities"
